Experimental data published in US8148373B2, “Compounds” (AstraZeneca AB, priority 2008, dated 2012).

Experiments:
[1] = target: T1, Adrenergic β2 (H292 cells) (Homo sapiens, UniProt P07550); experiment: Assay for Adrenergic β2 Mediated cAMP Production (concentration response, AlphaScreen cAMP detection); format: cell-based; conditions: for EC50: cAMP production, 60 minutes at room temperature, 300 μM rolipram, read-out: β2 pEC50 (converted); for β2 Intrinsic activity: fraction relative to the maximum activity determined for formoterol
T1 construct: endogenous in cells; host or cells: H292 cells
T1 sequence (P07550 whole entry): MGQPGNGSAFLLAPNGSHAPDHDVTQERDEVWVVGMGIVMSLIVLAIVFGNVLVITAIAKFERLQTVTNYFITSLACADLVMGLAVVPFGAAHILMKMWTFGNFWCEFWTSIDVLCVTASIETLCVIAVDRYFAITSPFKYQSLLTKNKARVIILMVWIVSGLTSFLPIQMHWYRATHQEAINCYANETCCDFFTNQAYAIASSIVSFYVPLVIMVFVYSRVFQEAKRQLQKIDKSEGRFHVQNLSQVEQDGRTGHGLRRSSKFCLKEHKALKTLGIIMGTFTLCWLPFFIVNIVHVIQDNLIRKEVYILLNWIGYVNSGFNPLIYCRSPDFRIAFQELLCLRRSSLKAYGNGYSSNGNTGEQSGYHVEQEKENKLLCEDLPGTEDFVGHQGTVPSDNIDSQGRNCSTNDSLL
Method in brief: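 Intrinsic activity is relative to the per-experiment formoterol maximum, with pEC50 from a four-parameter logistic fit of cAMP levels quantified by AlphaScreen against standards. Cells (H292) got 300 μM rolipram for 10 min, then compound for 60 min at room temperature, 1% DMSO final.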

[2] = target: T2, human muscarinic acetylcholine M3 receptor (M3-ACh) (Homo sapiens, UniProt P20309); experiment: Muscarinic 3 Receptor Binding Assay ([3H]NMS competition, SPA); conditions: [3H]NMS 0.1 nM, CHO-K1 cell membranes, 16 hours at room temperature; read-out: M3 pIC50 (converted)
T2 construct: expressed in transfected cells; host or cells: CHO-K1 (Chinese Hamster Ovary) cell membranes
T2 sequence (P20309 whole entry): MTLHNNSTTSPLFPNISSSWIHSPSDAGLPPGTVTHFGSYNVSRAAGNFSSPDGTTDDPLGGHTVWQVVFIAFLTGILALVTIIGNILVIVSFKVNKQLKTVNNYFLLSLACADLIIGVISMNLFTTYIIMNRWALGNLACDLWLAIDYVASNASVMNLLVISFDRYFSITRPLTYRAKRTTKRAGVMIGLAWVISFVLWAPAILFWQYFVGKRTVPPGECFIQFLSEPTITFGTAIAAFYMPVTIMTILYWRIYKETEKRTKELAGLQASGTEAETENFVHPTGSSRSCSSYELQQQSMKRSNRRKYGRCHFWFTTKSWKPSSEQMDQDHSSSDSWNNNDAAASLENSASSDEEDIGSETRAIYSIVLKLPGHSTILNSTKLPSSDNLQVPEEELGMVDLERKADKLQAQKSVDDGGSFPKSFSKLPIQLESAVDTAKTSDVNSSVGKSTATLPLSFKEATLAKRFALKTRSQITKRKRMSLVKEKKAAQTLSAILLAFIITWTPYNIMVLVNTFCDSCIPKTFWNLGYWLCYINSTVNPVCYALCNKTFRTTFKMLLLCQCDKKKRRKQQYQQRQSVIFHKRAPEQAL
Method in brief: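 Competition SPA binding of 0.1 nM [3H]NMS (quarter Kd) to membranes from CHO-K1 cells expressing human M3, in 20 mM HEPES pH 7.4, 5 mM MgCl2, 1% DMSO. Incubated 16 h at room temperature; non-specific binding with 1 µM atropine. pIC50 from 50% reduction of specific binding.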

[3] = target: T1, Adrenergic β2 (H292 cells); experiment: Adrenergic β2 Mediated cAMP Production, single concentration 1 μM; format: cell-based; conditions: NCI-H292, 1 μM compound, percentage of the maximum response generated by 1E-07M formoterol, read-out: β2 (% effect at 1 μM)
Method in brief: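 cAMP was quantified by AlphaScreen in lysates of H292 cells and reported as a percentage of the 1E-07M formoterol maximum. Before lysis the cells, seeded the previous day, received rolipram (300 μM final) and then test compound at a final 1 μM in 1% DMSO for 60 min at room temperature.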

[4] = target: T2, human muscarinic acetylcholine M3 receptor (M3-ACh); experiment: Muscarinic 3 Receptor Binding Assay, % inhibition specific binding at 1 μM; conditions: 1 μM compound, % inhibition specific [3H]-NMS binding
Method in brief: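 Value is % inhibition of specific [3H]N-methyl scopolamine binding (0.1 nM, quarter Kd) by 1 μM compound, using SPA beads precoated with human M3-expressing CHO-K1 membranes. Buffer HEPES pH 7.4 with MgCl2 and 1% DMSO; 16 h at room temperature; 1 μM atropine sets non-specific binding.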

| SMILES | EC50 [1] | β2 Intrinsic activity [1] | IC50 [2] | activation at 1 µM [3] | inhibition at 1 µM [4] |
| --- | --- | --- | --- | --- | --- |
| Cc1nc(CC(=O)N2CCOC3(CCN(CCCCCCCCCNC[C@H](O)c4ccc(O)c5[nH]c(=O)sc45)CC3)C2)cs1 [Example 210, (R)-4-hydroxy-7-(1-hydroxy-2-(9-(4-(2-(2-methylthiazol-4-yl)acetyl)-1-oxa-4,9-diazaspiro[5.5]undecan-9-yl)nonylamino)ethyl)benzo[d]thiazol-2(3H)-one] | 15.8 nM | 0.8 | 7.94 nM | 92% | 95% |
| Cc1csc(C(=O)N2CCOC3(CCN(CCCCCCCCCNC[C@H](O)c4ccc(O)c5[nH]c(=O)sc45)CC3)C2)c1 [Example 213, (R)-4-hydroxy-7-(1-hydroxy-2-(9-(4-(4-methylthiophene-2-carbonyl)-1-oxa-4,9-diazaspiro[5.5]undecan-9-yl)nonylamino)ethyl)benzo[d]thiazol-2(3H)-one] | 12.6 nM | 0.8 | 0.794 nM | 87% | 99% |
| O=C(c1csc(C(F)(F)F)n1)N1CCOC2(CCN(CCCCCCCCCNC[C@H](O)c3ccc(O)c4[nH]c(=O)sc34)CC2)C1 [Example 217, (R)-4-hydroxy-7-(1-hydroxy-2-(9-(4-(2-(trifluoromethyl)thiazole-4-carbonyl)-1-oxa-4,9-diazaspiro[5.5]undecan-9-yl)nonylamino)ethyl)benzo[d]thiazol-2(3H)-one] | 39.8 nM | 0.9 | 0.631 nM | 103% | 100% |
| O=C(c1csc(C2CC2)n1)N1CCOC2(CCN(CCCCCCCCCNC[C@H](O)c3ccc(O)c4[nH]c(=O)sc34)CC2)C1 [Example 218, (R)-7-(2-(9-(4-(2-cyclopropylthiazole-4-carbonyl)-1-oxa-4,9-diazaspiro[5.5]undecan-9-yl)nonylamino)-1-hydroxyethyl)-4-hydroxybenzo[d]thiazol-2(3H)-one] | 25.1 nM | 0.9 | 0.398 nM | 95% | 100% |
| CCCc1nc(C(=O)N2CCOC3(CCN(CCCCCCCCCNC[C@H](O)c4ccc(O)c5[nH]c(=O)sc45)CC3)C2)cs1 [Example 219, (R)-4-hydroxy-7-(1-hydroxy-2-(9-(4-(2-propylthiazole-4-carbonyl)-1-oxa-4,9-diazaspiro[5.5]undecan-9-yl)nonylamino)ethyl)benzo[d]thiazol-2(3H)-one] | 50.1 nM | 0.8 | 1 nM | 92% | 99% |
| O=C(c1csc(C2CCC2)n1)N1CCOC2(CCN(CCCCCCCCCNC[C@H](O)c3ccc(O)c4[nH]c(=O)sc34)CC2)C1 [Example 220, (R)-7-(2-(9-(4-(2-cyclobutylthiazole-4-carbonyl)-1-oxa-4,9-diazaspiro[5.5]undecan-9-yl)nonylamino)-1-hydroxyethyl)-4-hydroxybenzo[d]thiazol-2(3H)-one] | 25.1 nM | 0.8 | 0.631 nM | 109% | 100% |
| O=C(c1csc(C2CCCC2)n1)N1CCOC2(CCN(CCCCCCCCCNC[C@H](O)c3ccc(O)c4[nH]c(=O)sc34)CC2)C1 [Example 221, (R)-7-(2-(9-(4-(2-cyclopentylthiazole-4-carbonyl)-1-oxa-4,9-diazaspiro[5.5]undecan-9-yl)nonylamino)-1-hydroxyethyl)-4-hydroxybenzo[d]thiazol-2(3H)-one] | 31.6 nM | 0.9 | 1.26 nM | 93% | 99% |
| O=C(c1csc(C2CC2)n1)N1CCOC2(CCN(CCOc3ccc(CNC[C@H](O)c4ccc(O)c5[nH]c(=O)sc45)cc3)CC2)C1 [Example 259, (R)-7-(2-(4-(2-(4-(2-cyclopropylthiazole-4-carbonyl)-1-oxa-4,9-diazaspiro[5.5]undecan-9-yl)ethoxy)benzylamino)-1-hydroxyethyl)-4-hydroxy-benzo[d]thiazol-2(3H)-one] | 200 nM | 0.9 | 5.01 nM | 68% | 99% |
